Laboratory results: US4272437A, “Antibacterial agents, and 4-thio azetidinone intermediates” (priority 1979, dated 1981)
≈ marks a conversion by molar mass, not a printed value.

Legend:
[1] = test system: Staph. aureus (Meth-Res) A-15097; assay: MIC, tube dilution, Staphylococcus aureus A15097 (Meth-Res); format: cell-based; conditions: Staph. aureus A15097 (Meth-Res), overnight 37° C.
Source text: (§1) Representative compounds of the present invention were subjected to in vitro antibiotic screening against a variety of microorganisms.

[2] = test system: Ser. marcescens A-20019; assay: MIC, tube dilution, Serratia marcescens A20019; format: cell-based; conditions: overnight 37° C.; for Minimum Inhibitory Concentration (M.I.C.): Serratia marcescens A20019
Source text: as §1

[3] = test system: Pr. mirabilis A-9900; assay: MIC, tube dilution, Proteus mirabilis A9900; format: cell-based; conditions: overnight 37° C.; for Minimum Inhibitory Concentration (M.I.C.): Proteus mirabilis A9900
Source text: as §1

[4] = test system: Staph. aureus A-9537 and 50% serum; assay: MIC, tube dilution, Staph. aureus A9537 + 50% serum; format: cell-based, Staphylococcus aureus; conditions: overnight 37° C.
Source text: as §1

[5] = test system: Ent. cloacae A-9656; assay: MIC, tube dilution, Enterobacter cloacae A9656; format: cell-based; conditions: overnight 37° C.; for Minimum Inhibitory Concentration (M.I.C.): Enterobacter cloacae A9656
Source text: as §1

[6] = test system: Ps. aeruginosa A-9843A; assay: MIC, tube dilution, Pseudomonas aeruginosa A9843A; format: cell-based; conditions: overnight 37° C.
Source text: as §1

[7] = test system: K. pneumoniae A-15130; assay: MIC, tube dilution, Klebsiella pneumoniae A15130; format: cell-based; conditions: overnight 37° C.; for Minimum Inhibitory Concentration (M.I.C.): K. pneumoniae A15130
Source text: as §1

[8] = test system: E. coli A-20341-1; assay: MIC, tube dilution, Escherichia coli A20341-1; format: cell-based; conditions: E. coli A20341-1, overnight 37° C.
Source text: as §1

[9] = test system: Str. faecalis A-20688; assay: MIC, tube dilution, Streptococcus faecalis A20688; format: cell-based; conditions: overnight 37° C.
Source text: as §1

[10] = test system: Ent. cloacae A-9659; assay: MIC, tube dilution, Enterobacter cloacae A9659; format: cell-based; conditions: overnight 37° C.; for Minimum Inhibitory Concentration (M.I.C.): Enterobacter cloacae A9659
Source text: as §1

[11] = test system: Pr. morganii A-15153; assay: MIC, tube dilution, Proteus morganii A15153; format: cell-based; conditions: overnight 37° C.; for Minimum Inhibitory Concentration (M.I.C.): Proteus morganii A15153
Source text: as §1

[12] = test system: Staph. aureus A-9537; assay: MIC, tube dilution, Staphylococcus aureus A9537; format: cell-based; conditions: overnight 37° C., Nutrient Broth; for Minimum Inhibitory Concentration (M.I.C.): Staph. aureus A9537
Source text: as §1

[13] = test system: Staph. aureus (Pen-Res) A-9606; assay: MIC, tube dilution, Staphylococcus aureus A9606 (Pen-Res); format: cell-based; conditions: Staph. aureus A9606 (Pen-Res), overnight 37° C.
Source text: as §1

[14] = test system: Ps. aeruginosa A-21213; assay: MIC, tube dilution, Pseudomonas aeruginosa A21213; format: cell-based; conditions: Pseudomonas aeruginosa A21213, overnight 37° C.
Source text: as §1

[15] = test system: Klebsiella species A20468; assay: MIC, tube dilution, Klebsiella species A20468; format: cell-based; conditions: Klebsiella species (K. pneumoniae) A20468, overnight 37° C.
Source text: as §1

[16] = test system: E. coli A-15119; assay: MIC, tube dilution, Escherichia coli A15119; format: cell-based; conditions: overnight 37° C.; for Minimum Inhibitory Concentration (M.I.C.): E. coli A15119
Source text: as §1

[17] = test system: Providencia stuartii A21205; assay: MIC, tube dilution, Providencia stuartii (Pr. rettgeri) A21205; format: cell-based; conditions: overnight 37° C.; for Minimum Inhibitory Concentration (M.I.C.): Providencia stuartii (Pr. rettgeri) A21205
Source text: as §1

[18] = test system: Str. pneumoniae A-9585; assay: MIC, tube dilution, Streptococcus pneumoniae A9585; format: cell-based; conditions: overnight 37° C., Nutrient Broth; for Minimum Inhibitory Concentration (M.I.C.): Str. pneumoniae A9585
Source text: as §1

[19] = test system: Str. pyogenes A-9604; assay: MIC, tube dilution, Streptococcus pyogenes A9604; format: cell-based; conditions: overnight 37° C., Nutrient Broth; for Minimum Inhibitory Concentration (M.I.C.): Str. pyogenes A9604
Source text: as §1

[20] = test system: Pr. vulgaris A-9716; assay: MIC, tube dilution, Proteus vulgaris / Proteus mirabilis A9716; format: cell-based, Proteus vulgaris (name changed to Proteus mirabilis); conditions: overnight 37° C.; for Minimum Inhibitory Concentration (M.I.C.): Proteus vulgaris / Proteus mirabilis A9716
Source text: as §1

[21] = Staphylococcus aureus, read-out: Minimum Inhibitory Concentration (M.I.C.)
[22] = read-out: Minimum Inhibitory Concentration (M.I.C.)

## O=C(O)C1=C(COc2ccccc2)S[C@@H]2CC(=O)N12 [Example 11, 2-Phenoxymethylpenem-3-carboxylic Acid]
[1]
  Minimum Inhibitory Concentration (M.I.C.): 1 µg/mL
[2]
  Minimum Inhibitory Concentration (M.I.C.): > 125 µg/mL
[3]
  Minimum Inhibitory Concentration (M.I.C.): 16 µg/mL
[4]
  Minimum Inhibitory Concentration (M.I.C.): 63 µg/mL
[5]
  Minimum Inhibitory Concentration (M.I.C.): > 125 µg/mL
[6]; Pseudomonas aeruginosa A9843A
  Minimum Inhibitory Concentration (M.I.C.): > 125 µg/mL
[7]
  Minimum Inhibitory Concentration (M.I.C.): > 125 µg/mL
[8]
  Minimum Inhibitory Concentration (M.I.C.): > 125 µg/mL
[9]; Str. faecalis A20688
  Minimum Inhibitory Concentration (M.I.C.): 63 µg/mL
[10]
  Minimum Inhibitory Concentration (M.I.C.): > 125 µg/mL
[11]
  Minimum Inhibitory Concentration (M.I.C.): 16 µg/mL
[12]
  Minimum Inhibitory Concentration (M.I.C.): 1 µg/mL
[13]
  Minimum Inhibitory Concentration (M.I.C.): .5 µg/mL
[14]
  Minimum Inhibitory Concentration (M.I.C.): > 125 µg/mL
[15]
  Minimum Inhibitory Concentration (M.I.C.): > 125 µg/mL
[16]
  Minimum Inhibitory Concentration (M.I.C.): 63 µg/mL
[17]
  Minimum Inhibitory Concentration (M.I.C.): 63 µg/mL
[18]
  Minimum Inhibitory Concentration (M.I.C.): .5 µg/mL
[19]
  Minimum Inhibitory Concentration (M.I.C.): .5 µg/mL
[20]
  Minimum Inhibitory Concentration (M.I.C.): 16 µg/mL

## CCC1=C(C(=O)O)N2C(=O)C[C@H]2S1 [Preparation 10, 2-Ethylpenem-3-carboxylic Acid]
[1]; [21]
  MIC: 0.5 µg/mL (≈ 2.51 µM)
[2]; Serratia marcescens, A20019, Serratia marcescens A20019, read-out: Minimum Inhibitory Concentration (M.I.C.)
  MIC: 4 µg/mL (≈ 20.1 µM)
[3]; Proteus mirabilis, A9900, Proteus mirabilis A9900, read-out: Minimum Inhibitory Concentration (M.I.C.)
  MIC: 4 µg/mL (≈ 20.1 µM)
[4]; [21]
  MIC: 16 µg/mL
[5]; Enterobacter cloacae, A9656, Enterobacter cloacae A9656, read-out: Minimum Inhibitory Concentration (M.I.C.)
  MIC: 16 µg/mL (≈ 80.3 µM)
[6]; Pseudomonas aeruginosa, A9843A, read-out: Minimum Inhibitory Concentration (M.I.C.), Pseudomonas aeruginosa A9843A
  MIC: > 125 µg/mL
[7]; Klebsiella pneumoniae, A15130, K. pneumoniae A15130, read-out: Minimum Inhibitory Concentration (M.I.C.)
  MIC: 8 µg/mL (≈ 40.2 µM)
[8]; Escherichia coli, A203411, read-out: Minimum Inhibitory Concentration (M.I.C.)
  MIC: 125 µg/mL (≈ 627 µM)
[9]; Enterococcus faecalis, A20688, Str. faecalis A20688, read-out: Minimum Inhibitory Concentration (M.I.C.)
  MIC: 32 µg/mL (≈ 161 µM)
[10]; Enterobacter cloacae, A9659, Enterobacter cloacae A9659, read-out: Minimum Inhibitory Concentration (M.I.C.)
  MIC: 16 µg/mL (≈ 80.3 µM)
[11]; Morganella morganii, A15153, Proteus morganii A15153, read-out: Minimum Inhibitory Concentration (M.I.C.)
  MIC: 8 µg/mL (≈ 40.2 µM)
[12]; Staphylococcus aureus, A9537, Staph. aureus A9537, read-out: Minimum Inhibitory Concentration (M.I.C.)
  MIC: 0.13 µg/mL (≈ 0.653 µM)
[13]; [21]
  MIC: 0.5 µg/mL (≈ 2.51 µM)
[14]; [22]
  MIC: 125 µg/mL (≈ 627 µM)
[15]; [22]
  MIC: > 125 µg/mL
[16]; Escherichia coli, A15119, E. coli A15119, read-out: Minimum Inhibitory Concentration (M.I.C.)
  MIC: 4 µg/mL (≈ 20.1 µM)
[17]; Providencia stuartii, A21205, Providencia stuartii (Pr. rettgeri) A21205, read-out: Minimum Inhibitory Concentration (M.I.C.)
  MIC: 4 µg/mL (≈ 20.1 µM)
[18]; Streptococcus pneumoniae, A9585, Str. pneumoniae A9585, read-out: Minimum Inhibitory Concentration (M.I.C.)
  MIC: 0.03 µg/mL (≈ 0.151 µM)
[19]; Streptococcus pyogenes, A9604, Str. pyogenes A9604, read-out: Minimum Inhibitory Concentration (M.I.C.)
  MIC: 0.5 µg/mL (≈ 2.51 µM)
[20]; Proteus vulgaris, A9716, Proteus vulgaris / Proteus mirabilis A9716, read-out: Minimum Inhibitory Concentration (M.I.C.)
  MIC: 4 µg/mL (≈ 20.1 µM)

## CC1=C(C(=O)O)N2C(=O)C[C@H]2S1 [Preparation 4(+), (+)-2-Methylpenem-3-carboxylic Acid]
[2]
  Minimum Inhibitory Concentration (M.I.C.): 4 µg/mL
[3]
  Minimum Inhibitory Concentration (M.I.C.): 4 µg/mL
[4]
  Minimum Inhibitory Concentration (M.I.C.): 4 µg/mL
[5]
  Minimum Inhibitory Concentration (M.I.C.): 8 µg/mL
[7]
  Minimum Inhibitory Concentration (M.I.C.): 8 µg/mL
[10]
  Minimum Inhibitory Concentration (M.I.C.): 8 µg/mL
[11]
  Minimum Inhibitory Concentration (M.I.C.): 8 µg/mL
[12]
  Minimum Inhibitory Concentration (M.I.C.): 0.5 µg/mL
[13]
  Minimum Inhibitory Concentration (M.I.C.): 0.5 µg/mL
[15]
  Minimum Inhibitory Concentration (M.I.C.): > 125 µg/mL
[16]
  Minimum Inhibitory Concentration (M.I.C.): 4 µg/mL
[17]
  Minimum Inhibitory Concentration (M.I.C.): 4 µg/mL
[18]
  Minimum Inhibitory Concentration (M.I.C.): 0.06 µg/mL
[19]
  Minimum Inhibitory Concentration (M.I.C.): 0.25 µg/mL
[20]
  Minimum Inhibitory Concentration (M.I.C.): 4 µg/mL
